# Target: T1, Human autotaxin enzyme (Homo sapiens, UniProt Q13822)
# T1 construct: purchased R&D System
# Assay: Evaluation of autotaxin inhibitor, 18:0 Lyso PC / choline assay (Test Example 2)
# Assay type: biochemical
# Settings: human autotaxin enzyme, 18:0 Lyso PC substrate, choline assay, room temperature 2 hours; read-out: Inhibitor activity (IC50)
# Method in brief: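 Human autotaxin in 100 mM Tris-HCl pH 7.5, 150 mM NaCl, 5 mM MgCl2, 0.05% Triton X-100 reacted with 18:0 Lyso PC (200 μM stock) and test compound 2 h at room temperature. Released choline quantified via choline oxidase/peroxidase resorufin fluorescence (ex 531/em 598 nm, 20 min); inhibition vs no-compound and no-enzyme controls, concentration-response curve.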
row,Structure (SMILES),IC50 [nM]
1,COC(=O)c1cncc(Cn2c(CCCC(F)(F)F)nc(-c3ccc(Cl)cc3)cc2=O)c1 [Compound I-0307],100 to 1000
2,CCOC(=O)c1noc(Cn2c(CCCC(F)(F)F)nc(-c3ccc(Cl)cc3)cc2=O)n1 [Compound I-0311],100 to 1000
3,COC(=O)c1ccc(Cn2c(CCCC(F)(F)F)nc(-c3ccc(Cl)cc3)cc2=O)s1 [Compound I-0312],100 to 1000
4,COC(=O)c1cc(Cn2c(CCCC(F)(F)F)nc(-c3ccc(Cl)cc3)cc2=O)cs1 [Compound I-0313],100 to 1000
5,CC1(O)CN(C(=O)Cn2c(CCCC(F)(F)F)nc(-c3ccc(Cl)cc3CO)cc2=O)C1 [Compound I-0315],≥ 1000
6,O=C(Cn1c(CCCC(F)(F)F)nc(-c2ccc(C(F)(F)F)cc2)cc1=O)N1CCC(O)C1 (centres unmarked) [Compound I-0319],100 to 1000
7,CC1(O)CN(C(=O)Cn2c(CCCC(F)(F)F)nc(-c3ccc(C(F)(F)F)cc3)cc2=O)C1 [Compound I-0320],100 to 1000
8,O=C(Cn1c(CCCC(F)(F)F)nc(-c2ccc(C(F)(F)F)cc2)cc1=O)NCC1(CO)COC1 [Compound I-0337],10 to 100
9,O=C(Cn1c(CCCC(F)(F)F)nc(-c2ccc(C(F)(F)F)cc2)cc1=O)N1CCOC(CO)C1 (centres unmarked) [Compound I-0338],10 to 100
10,O=C(Cn1c(CCCC(F)(F)F)nc(C2=CCC(C(F)(F)F)CC2)cc1=O)NCC1(CO)COC1 (centres unmarked) [Compound I-0339],10 to 100
11,O=C(Cn1c(CCCC(F)(F)F)nc(-c2ccc(C(F)(F)F)cc2)cc1=O)NCc1ccc(O)nc1 [Compound I-0340],100 to 1000
12,CC(C)(C)OC(=O)Cn1c(CCC(F)(F)F)nc(-c2ccc(Cl)cc2NC(=O)C(C)(C)C)cc1=O [Compound I-0341],100 to 1000
13,NC(=O)C1CCN(C(=O)Cn2c(CCCC(F)(F)F)nc(-c3ccc(C(F)(F)F)cc3)cc2=O)CC1 [Compound I-0342],10 to 100
14,O=C1CCC(CNC(=O)Cn2c(CCCC(F)(F)F)nc(-c3ccc(C(F)(F)F)cc3)cc2=O)CN1 (centres unmarked) [Compound I-0343],100 to 1000
15,O=C(Cn1c(CCCC(F)(F)F)nc(-c2ccc(C(F)(F)F)cc2)cc1=O)NCC1(O)CCCCC1 [Compound I-0344],10 to 100
16,O=C(O)c1cccc(Cn2c(CCC(F)(F)F)nc(-c3ccc(Cl)cc3NC(=O)C3CC3)cc2=O)c1 [Compound I-0345],10 to 100
17,O=C(Cn1c(CCCC(F)(F)F)nc(-c2ccc(C(F)(F)F)cc2)cc1=O)N1CCN(CCO)CC1 [Compound I-0346],10 to 100
18,O=C(Cn1c(CCCC(F)(F)F)nc(-c2ccc(C(F)(F)F)cc2)cc1=O)NC1(c2cccnc2)CC1 [Compound I-0347],10 to 100
19,O=C(Cn1c(CCCC(F)(F)F)nc(-c2ccc(C(F)(F)F)cc2)cc1=O)NC1(c2ccccn2)CC1 [Compound I-0348],10 to 100

row,Structure (SMILES),IC50 [nM]
1,O=C(Cn1c(CCCC(F)(F)F)nc(-c2ccc(C(F)(F)F)cc2)cc1=O)N1CCS(=O)(=O)CC1 [Compound I-0349],10 to 100
2,CNC(=O)C1CCN(C(=O)Cn2c(CCCC(F)(F)F)nc(-c3ccc(C(F)(F)F)cc3)cc2=O)CC1 [Compound I-0350],10 to 100
3,CC(=O)NC1CCN(C(=O)Cn2c(CCCC(F)(F)F)nc(-c3ccc(C(F)(F)F)cc3)cc2=O)CC1 [Compound I-0351],100 to 1000
4,CC(C)(O)C1CCN(C(=O)Cn2c(CCCC(F)(F)F)nc(-c3ccc(C(F)(F)F)cc3)cc2=O)CC1 [Compound I-0352],10 to 100
5,NC(=S)C1CCN(C(=O)Cn2c(CCCC(F)(F)F)nc(-c3ccc(C(F)(F)F)cc3)cc2=O)CC1 [Compound I-0353],10 to 100
6,O=C(Cn1c(CCCC(F)(F)F)nc(-c2ccc(C(F)(F)F)cc2)cc1=O)N1CCC(OCCO)CC1 [Compound I-0354],10 to 100
7,O=C(NCC1(CO)COC1)c1ccc(Cn2c(CCCC(F)(F)F)nc(-c3ccc(Cl)cc3)cc2=O)o1 [Compound I-0355],100 to 1000
8,CC(C)(O)CN1CCN(C(=O)Cn2c(CCCC(F)(F)F)nc(-c3ccc(C(F)(F)F)cc3)cc2=O)CC1 [Compound I-0357],100 to 1000
9,O=C(NCC1(CO)COC1)c1cccc(Cn2c(CCCC(F)(F)F)nc(-c3ccc(Cl)cc3)cc2=O)n1 [Compound I-0358],10 to 100
10,CS(=O)(=O)N1CCN(C(=O)Cn2c(CCCC(F)(F)F)nc(-c3ccc(C(F)(F)F)cc3)cc2=O)CC1 [Compound I-0359],10 to 100
11,CC(C)(C)C(=O)Nc1cc(Cl)ccc1-c1cc(=O)n(CC(=O)NCC2(CO)COC2)c(CCC(F)(F)F)n1 [Compound I-0360],100 to 1000
12,CN1CNC(=O)C12CCN(C(=O)Cn1c(CCCC(F)(F)F)nc(-c3ccc(C(F)(F)F)cc3)cc1=O)CC2 [Compound I-0361],10 to 100
13,O=C(Cn1c(CCCC(F)(F)F)nc(-c2ccc(C(F)(F)F)cc2)cc1=O)N1CCC(N2CCNC2=O)CC1 [Compound I-0362],10 to 100
14,CCNC(=O)N1CCC(NC(=O)Cn2c(CCCC(F)(F)F)nc(-c3ccc(C(F)(F)F)cc3)cc2=O)CC1 [Compound I-0363],10 to 100
15,CN(C)C(=O)NC1CCN(C(=O)Cn2c(CCCC(F)(F)F)nc(-c3ccc(C(F)(F)F)cc3)cc2=O)CC1 [Compound I-0364],100 to 1000
16,CNC(=O)CN1CCC(NC(=O)Cn2c(CCCC(F)(F)F)nc(-c3ccc(C(F)(F)F)cc3)cc2=O)CC1 [Compound I-0365],100 to 1000
17,CCS(=O)(=O)N1CCN(C(=O)Cn2c(CCCC(F)(F)F)nc(-c3ccc(C(F)(F)F)cc3)cc2=O)CC1 [Compound I-0366],100 to 1000
18,CC(C)(C)C(=O)Nc1cc(Cl)ccc1-c1cc(=O)n(CC(=O)N2CCC(C(=O)O)CC2)c(CCC(F)(F)F)n1 [Compound I-0367],10 to 100

# Now from value to molecule:
row,IC50 [nM],Structure (SMILES)
1,10 to 100,Cc1nc(-c2ccc(Cl)cc2NC(=O)C2CC2)cc(=O)n1CC(=O)NCC1(CO)COC1 [Compound I-0300]
2,10 to 100,Cc1nc(-c2ccc(Cl)cc2NC(=O)C(C)(C)C)cc(=O)n1CC(=O)N1CCC(O)CC1 [Compound I-0301]
3,10 to 100,COC(=O)Nc1cc(Cl)ccc1-c1cc(=O)n(CC(=O)N(C)C2(CO)CCCC2)c(C)n1 [Compound I-0302]
4,10 to 100,CC(O)CNC(=O)Cn1c(CCCC(F)(F)F)nc(-c2ccc(C(F)(F)F)cc2)cc1=O (centres unmarked) [Compound I-0303]
5,10 to 100,CC(C)(C)OC(=O)Cn1c(CCCC(F)(F)F)nc(-c2ccc(C(F)(F)F)nc2)cc1=O [Compound I-0304]
6,10 to 100,CN(CCO)C(=O)Cn1c(CCCC(F)(F)F)nc(-c2ccc(C(F)(F)F)cc2)cc1=O [Compound I-0305]
7,10 to 100,COC(=O)c1cccc(Cn2c(CCCC(F)(F)F)nc(-c3ccc(Cl)cc3)cc2=O)n1 [Compound I-0306]
8,10 to 100,Cc1nc(-c2ccc(C#N)cc2NC(=O)C(C)(C)C)cc(=O)n1CC(=O)NCC1(CO)COC1 [Compound I-0308]
9,10 to 100,COC(=O)Nc1cc(Cl)ccc1-c1cc(=O)n(CC(=O)NC2CCS(=O)(=O)C2)c(C)n1 (centres unmarked) [Compound I-0309]
10,10 to 100,Cc1nc(-c2ccc(Cl)cc2NC(=O)C(C)(C)C)cc(=O)n1CC(=O)Nc1cccnc1O [Compound I-0310]
11,10 to 100,N#CC1CN(C(=O)Cn2c(CCCC(F)(F)F)nc(-c3ccc(C(F)(F)F)cc3)cc2=O)C1 [Compound I-0314]
12,10 to 100,CSc1nc(-c2ccc(Cl)cc2NC(=O)C(C)(C)C)cc(=O)n1CC(=O)NC1(C#N)CC1 [Compound I-0316]
13,10 to 100,Cc1nc(-c2ccc(Cl)cc2NC(=O)C(C)(C)C)cc(=O)n1CC(=O)NCC1(CO)COC1 [Compound I-0317]
14,10 to 100,O=C(Cn1c(CCCC(F)(F)F)nc(-c2ccc(C(F)(F)F)cc2)cc1=O)NCC1CCO1 (centres unmarked) [Compound I-0318]
15,10 to 100,CC(C)(O)CNC(=O)Cn1c(CCCC(F)(F)F)nc(-c2ccc(C(F)(F)F)cc2)cc1=O [Compound I-0321]
16,10 to 100,O=C(O)c1cccc(Cn2c(CCCC(F)(F)F)nc(-c3ccc(Cl)cc3CO)cc2=O)c1 [Compound I-0322]

row,IC50 [nM],Structure (SMILES)
1,10 to 100,O=C(Cn1c(CCCC(F)(F)F)nc(-c2ccc(C(F)(F)F)cc2)cc1=O)NCC(O)CO (centres unmarked) [Compound I-0323]
2,10 to 100,COC(=O)Nc1cc(Cl)ccc1-c1cc(=O)n(CC(=O)NC2(C)CCS(=O)(=O)C2)c(C)n1 (centres unmarked) [Compound I-0324]
3,10 to 100,CS(C)(=O)=NC(=O)Cn1c(CCCC(F)(F)F)nc(-c2ccc(C(F)(F)F)cc2)cc1=O [Compound I-0325]
4,10 to 100,CCOC(=O)c1nc(Cn2c(CCCC(F)(F)F)nc(-c3ccc(Cl)cc3)cc2=O)cs1 [Compound I-0326]
5,10 to 100,N#CC1CCN(C(=O)Cn2c(CCCC(F)(F)F)nc(-c3ccc(C(F)(F)F)cc3)cc2=O)C1 (centres unmarked) [Compound I-0327]
6,10 to 100,O=C(Cn1c(CCCC(F)(F)F)nc(-c2ccc(Cl)cc2CO)cc1=O)NCC1(CO)CC1 [Compound I-0328]
7,10 to 100,Cc1nc(-c2ccc(Cl)cc2NC(=O)C(C)(C)C)cc(=O)n1CC(=O)N1CCC(C(N)=O)CC1 [Compound I-0329]
8,10 to 100,O=C(Cn1c(CCCC(F)(F)F)nc(-c2ccc(C(F)(F)F)cc2)cc1=O)NCc1c[nH]nn1 [Compound I-0330]
9,< 10,O=C(Cn1c(CCCC(F)(F)F)nc(-c2ccc(C(F)(F)F)cc2)cc1=O)NCc1nn[nH]n1 [Compound I-0331]
10,10 to 100,CN(C(=O)Cn1c(CCCC(F)(F)F)nc(-c2ccc(C(F)(F)F)cc2)cc1=O)C1(C)COC1 [Compound I-0332]
11,10 to 100,O=C(Cn1c(CCCC(F)(F)F)nc(-c2ccc(C(F)(F)F)cc2)cc1=O)NCCc1cn[nH]c1 [Compound I-0333]
12,10 to 100,O=C(Cn1c(CCCC(F)(F)F)nc(-c2ccc(Cl)cc2CO)cc1=O)NCC1(CO)COC1 [Compound I-0334]
13,10 to 100,O=C(Cn1c(CCCC(F)(F)F)nc(-c2ccc(C(F)(F)F)cc2)cc1=O)NCC1CCC(=O)N1 (centres unmarked) [Compound I-0335]
14,10 to 100,O=C1CC(CNC(=O)Cn2c(CCCC(F)(F)F)nc(-c3ccc(C(F)(F)F)cc3)cc2=O)CN1 (centres unmarked) [Compound I-0336]
15,< 10,CNC(=O)NC1CCN(C(=O)Cn2c(CCCC(F)(F)F)nc(-c3ccc(C(F)(F)F)cc3)cc2=O)CC1 [Compound I-0356]

# Reference: patent US10183949B2, “Pyrimidinone derivative having autotaxin-inhibitory activity” (The University of Tokyo, priority 2014, dated 2019)
